What was measured:
[1] = molecular target: T1, Muscarinic acetylcholine receptor M1 (Homo sapiens, UniProt P11229)
T1 sequence (P11229 whole entry): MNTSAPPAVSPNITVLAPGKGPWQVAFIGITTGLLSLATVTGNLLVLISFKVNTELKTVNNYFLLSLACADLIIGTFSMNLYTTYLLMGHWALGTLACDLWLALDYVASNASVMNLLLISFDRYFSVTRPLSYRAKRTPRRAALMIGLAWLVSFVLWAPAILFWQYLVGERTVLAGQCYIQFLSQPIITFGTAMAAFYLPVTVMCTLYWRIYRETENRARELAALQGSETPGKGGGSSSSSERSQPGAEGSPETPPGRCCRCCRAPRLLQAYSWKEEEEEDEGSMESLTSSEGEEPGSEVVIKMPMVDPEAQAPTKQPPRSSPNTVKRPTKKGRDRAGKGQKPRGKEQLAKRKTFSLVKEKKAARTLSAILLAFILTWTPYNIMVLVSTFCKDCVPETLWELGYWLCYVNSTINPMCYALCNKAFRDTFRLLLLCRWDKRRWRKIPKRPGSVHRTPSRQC
Description: Binding affinity towards muscarinic M1 receptor

[2] = molecular target: T2, Potassium voltage-gated channel subfamily KQT member 1 (Cavia porcellus, UniProt O70344); format: cell-based, Oocyte
T2 sequence (O70344 whole entry): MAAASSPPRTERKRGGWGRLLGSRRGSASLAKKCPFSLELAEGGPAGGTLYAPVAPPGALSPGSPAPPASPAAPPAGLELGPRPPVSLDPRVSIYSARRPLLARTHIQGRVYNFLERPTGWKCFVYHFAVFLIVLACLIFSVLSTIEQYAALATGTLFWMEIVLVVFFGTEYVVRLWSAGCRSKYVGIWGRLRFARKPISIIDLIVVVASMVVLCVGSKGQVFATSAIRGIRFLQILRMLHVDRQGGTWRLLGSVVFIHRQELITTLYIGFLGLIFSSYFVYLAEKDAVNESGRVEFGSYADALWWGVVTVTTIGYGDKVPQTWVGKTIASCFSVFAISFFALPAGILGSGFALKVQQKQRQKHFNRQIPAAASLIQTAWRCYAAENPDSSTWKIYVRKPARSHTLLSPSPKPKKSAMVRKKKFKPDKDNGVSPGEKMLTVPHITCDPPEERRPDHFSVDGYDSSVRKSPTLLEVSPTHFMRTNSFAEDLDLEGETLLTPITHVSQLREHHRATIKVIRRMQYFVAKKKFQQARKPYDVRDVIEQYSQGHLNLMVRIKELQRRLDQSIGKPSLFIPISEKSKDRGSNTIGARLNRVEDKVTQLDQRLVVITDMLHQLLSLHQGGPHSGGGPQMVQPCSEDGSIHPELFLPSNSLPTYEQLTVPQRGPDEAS
Description: (§1) Inhibition of guinea pig Iks potassium channel expressed in Xenopus oocytes

[3] = molecular target: T2, Potassium voltage-gated channel subfamily KQT member 1; format: functional, cell-based, Oocyte
Description: as §1

Endothelin-1 receptor [4] = molecular target: T3, Endothelin-1 receptor (Homo sapiens, UniProt P25101)
T3 sequence (P25101 whole entry): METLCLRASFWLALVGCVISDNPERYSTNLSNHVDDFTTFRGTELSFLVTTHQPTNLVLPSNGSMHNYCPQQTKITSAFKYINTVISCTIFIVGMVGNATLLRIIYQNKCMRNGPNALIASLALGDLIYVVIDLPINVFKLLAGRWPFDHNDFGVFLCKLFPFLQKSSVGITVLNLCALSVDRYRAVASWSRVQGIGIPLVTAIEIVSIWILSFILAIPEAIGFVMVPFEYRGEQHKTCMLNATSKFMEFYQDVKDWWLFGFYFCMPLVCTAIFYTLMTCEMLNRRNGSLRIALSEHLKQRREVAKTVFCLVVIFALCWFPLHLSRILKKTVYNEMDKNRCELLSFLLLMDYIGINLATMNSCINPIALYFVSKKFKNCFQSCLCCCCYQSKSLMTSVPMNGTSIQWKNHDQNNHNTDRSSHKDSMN
Description: (§2) Inhibitory concentration against Endothelin A receptor

Rattus norvegicus = species on record: Rattus norvegicus; format: functional
Description: Dose required for oral activity in rats

in vivo = conditions: rat
Endothelin-1 receptor [5] = molecular target: T3, Endothelin-1 receptor; remark: listed apart in the source
Description: as §2

[6] = molecular target: T4, Muscarinic acetylcholine receptor M4 (Homo sapiens, UniProt P08173)
T4 sequence (P08173 whole entry): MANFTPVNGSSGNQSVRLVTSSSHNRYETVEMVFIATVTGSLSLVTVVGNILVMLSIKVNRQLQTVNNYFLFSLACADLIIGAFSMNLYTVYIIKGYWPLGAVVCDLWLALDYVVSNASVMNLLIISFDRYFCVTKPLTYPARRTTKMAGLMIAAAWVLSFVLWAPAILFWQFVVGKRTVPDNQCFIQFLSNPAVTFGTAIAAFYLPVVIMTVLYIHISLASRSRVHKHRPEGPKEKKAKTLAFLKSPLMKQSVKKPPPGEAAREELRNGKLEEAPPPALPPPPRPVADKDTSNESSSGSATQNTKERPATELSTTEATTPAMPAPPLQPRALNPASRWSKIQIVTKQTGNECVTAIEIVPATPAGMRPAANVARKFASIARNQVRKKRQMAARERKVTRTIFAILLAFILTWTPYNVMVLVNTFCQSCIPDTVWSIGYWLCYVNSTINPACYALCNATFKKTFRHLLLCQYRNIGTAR
Description: (§3) Binding affinity towards human muscarinic receptor

[7] = molecular target: Muscarinic acetylcholine receptor; format: protein assay
Description: as §3

[8] = molecular target: T5, Adrenergic receptor alpha-1 (Homo sapiens, UniProt P35348+P25100+P35368)
T5 sequence (P35348 whole entry): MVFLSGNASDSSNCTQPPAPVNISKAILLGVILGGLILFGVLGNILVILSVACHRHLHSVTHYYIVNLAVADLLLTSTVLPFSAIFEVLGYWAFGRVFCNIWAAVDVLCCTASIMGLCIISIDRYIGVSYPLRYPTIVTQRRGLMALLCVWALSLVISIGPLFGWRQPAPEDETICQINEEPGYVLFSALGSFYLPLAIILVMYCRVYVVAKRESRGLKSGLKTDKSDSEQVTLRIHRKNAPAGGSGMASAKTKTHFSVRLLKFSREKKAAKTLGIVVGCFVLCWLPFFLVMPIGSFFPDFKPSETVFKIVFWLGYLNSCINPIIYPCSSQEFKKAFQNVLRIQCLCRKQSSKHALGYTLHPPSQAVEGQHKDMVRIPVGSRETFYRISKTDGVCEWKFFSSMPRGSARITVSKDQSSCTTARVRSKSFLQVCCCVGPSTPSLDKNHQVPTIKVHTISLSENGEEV
T5 sequence (P25100 whole entry): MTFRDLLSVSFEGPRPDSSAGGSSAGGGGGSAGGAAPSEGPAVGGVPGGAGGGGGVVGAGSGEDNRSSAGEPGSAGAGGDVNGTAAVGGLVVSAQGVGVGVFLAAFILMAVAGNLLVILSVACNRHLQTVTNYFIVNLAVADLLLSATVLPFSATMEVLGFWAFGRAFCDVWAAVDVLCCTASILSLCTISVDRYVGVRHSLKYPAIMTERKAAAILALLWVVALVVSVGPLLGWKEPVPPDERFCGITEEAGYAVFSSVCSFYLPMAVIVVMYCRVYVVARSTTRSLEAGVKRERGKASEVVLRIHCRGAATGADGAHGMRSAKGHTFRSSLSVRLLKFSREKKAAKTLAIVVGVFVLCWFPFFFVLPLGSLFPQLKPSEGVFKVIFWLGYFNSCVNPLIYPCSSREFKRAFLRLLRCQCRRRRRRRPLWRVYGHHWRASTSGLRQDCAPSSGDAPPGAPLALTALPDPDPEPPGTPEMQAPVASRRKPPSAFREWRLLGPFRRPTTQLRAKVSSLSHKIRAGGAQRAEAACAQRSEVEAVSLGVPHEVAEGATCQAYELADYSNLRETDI
T5 sequence (P35368 whole entry): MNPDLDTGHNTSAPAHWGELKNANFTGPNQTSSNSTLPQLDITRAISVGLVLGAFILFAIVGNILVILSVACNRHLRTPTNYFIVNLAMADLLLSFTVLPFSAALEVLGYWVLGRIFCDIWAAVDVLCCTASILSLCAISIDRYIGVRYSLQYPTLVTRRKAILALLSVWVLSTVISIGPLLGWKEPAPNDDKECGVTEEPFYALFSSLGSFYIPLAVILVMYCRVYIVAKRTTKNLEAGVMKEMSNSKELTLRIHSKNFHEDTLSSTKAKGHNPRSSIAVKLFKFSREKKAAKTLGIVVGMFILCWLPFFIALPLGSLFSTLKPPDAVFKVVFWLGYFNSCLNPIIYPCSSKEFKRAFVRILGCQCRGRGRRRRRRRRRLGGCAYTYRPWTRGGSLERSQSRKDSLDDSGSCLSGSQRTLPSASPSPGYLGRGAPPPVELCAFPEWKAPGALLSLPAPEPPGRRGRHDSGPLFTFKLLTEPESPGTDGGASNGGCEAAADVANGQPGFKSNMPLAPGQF
Description: Binding affinity towards human alpha-1 adrenergic receptor

D(4) dopamine receptor = D(4) dopamine receptor (Homo sapiens, UniProt P21917)
Description: Binding affinity against human Dopamine receptor D4 versus hD2, hD3 receptor

Acetylcholinesterase [9] = molecular target: T6, Acetylcholinesterase (Electrophorus electricus, UniProt O42275)
Description: (§4) Inhibitory concentration towards acetylcholinesterase in electric eel

Acetylcholinesterase [10] = molecular target: T6, Acetylcholinesterase; format: functional
Description: as §4

Homo sapiens = species on record: Homo sapiens; test: cells; format: functional, organism-based
Description: Antiviral activity against human respiratory syncytial virus (RSV)

[11] = molecular target: T7, Endothelin receptor type B (Homo sapiens, UniProt P24530)
T7 sequence (P24530 whole entry): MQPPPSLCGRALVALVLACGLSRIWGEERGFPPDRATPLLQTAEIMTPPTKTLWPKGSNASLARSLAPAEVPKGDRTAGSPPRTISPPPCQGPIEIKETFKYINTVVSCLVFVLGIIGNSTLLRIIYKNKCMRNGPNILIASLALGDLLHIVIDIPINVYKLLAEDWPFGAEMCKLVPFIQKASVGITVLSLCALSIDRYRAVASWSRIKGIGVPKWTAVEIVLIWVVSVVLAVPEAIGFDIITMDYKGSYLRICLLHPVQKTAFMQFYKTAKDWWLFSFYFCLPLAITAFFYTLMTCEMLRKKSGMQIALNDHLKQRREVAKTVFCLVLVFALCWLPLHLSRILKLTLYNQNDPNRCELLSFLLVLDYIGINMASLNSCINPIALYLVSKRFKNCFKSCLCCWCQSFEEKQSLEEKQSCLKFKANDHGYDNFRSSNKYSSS

Endothelin-1 receptor [12] = molecular target: T3, Endothelin-1 receptor; remark: listed apart in the source
Description: Binding affinity against human Endothelin A receptor

D(3) dopamine receptor = D(3) dopamine receptor (Homo sapiens, UniProt P35462)
Chain of D(3) dopamine receptor (P35462 whole entry): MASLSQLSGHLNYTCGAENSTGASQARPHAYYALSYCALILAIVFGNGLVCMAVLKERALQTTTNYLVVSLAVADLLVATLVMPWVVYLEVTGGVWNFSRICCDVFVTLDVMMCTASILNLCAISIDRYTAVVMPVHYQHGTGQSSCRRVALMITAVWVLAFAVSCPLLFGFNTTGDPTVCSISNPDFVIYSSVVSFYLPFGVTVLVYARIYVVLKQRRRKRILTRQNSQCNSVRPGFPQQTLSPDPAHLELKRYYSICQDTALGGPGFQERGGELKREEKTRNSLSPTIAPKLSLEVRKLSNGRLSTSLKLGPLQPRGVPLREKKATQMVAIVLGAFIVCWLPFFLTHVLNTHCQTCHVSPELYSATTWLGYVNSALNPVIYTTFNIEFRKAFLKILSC
Description: Binding affinity against Dopamine receptor D3

T6 sequence (O42275 whole entry): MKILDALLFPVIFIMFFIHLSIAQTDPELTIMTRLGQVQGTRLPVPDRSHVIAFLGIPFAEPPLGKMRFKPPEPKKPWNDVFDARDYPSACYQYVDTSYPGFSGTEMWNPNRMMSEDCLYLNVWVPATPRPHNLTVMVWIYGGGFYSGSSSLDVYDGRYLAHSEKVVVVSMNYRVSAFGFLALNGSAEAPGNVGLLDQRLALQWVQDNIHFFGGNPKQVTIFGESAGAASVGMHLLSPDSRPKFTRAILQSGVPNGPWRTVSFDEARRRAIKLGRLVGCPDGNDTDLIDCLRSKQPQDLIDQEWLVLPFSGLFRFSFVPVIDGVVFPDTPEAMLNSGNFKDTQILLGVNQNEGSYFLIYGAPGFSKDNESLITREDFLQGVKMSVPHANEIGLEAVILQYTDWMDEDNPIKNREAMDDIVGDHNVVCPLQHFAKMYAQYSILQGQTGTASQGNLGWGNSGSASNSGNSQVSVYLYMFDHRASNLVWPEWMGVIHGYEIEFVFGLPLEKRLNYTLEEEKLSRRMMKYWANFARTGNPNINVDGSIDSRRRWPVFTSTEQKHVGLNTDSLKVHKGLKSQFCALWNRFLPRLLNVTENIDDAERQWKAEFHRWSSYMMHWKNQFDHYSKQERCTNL
Chain of D(4) dopamine receptor (P21917 whole entry, looked up): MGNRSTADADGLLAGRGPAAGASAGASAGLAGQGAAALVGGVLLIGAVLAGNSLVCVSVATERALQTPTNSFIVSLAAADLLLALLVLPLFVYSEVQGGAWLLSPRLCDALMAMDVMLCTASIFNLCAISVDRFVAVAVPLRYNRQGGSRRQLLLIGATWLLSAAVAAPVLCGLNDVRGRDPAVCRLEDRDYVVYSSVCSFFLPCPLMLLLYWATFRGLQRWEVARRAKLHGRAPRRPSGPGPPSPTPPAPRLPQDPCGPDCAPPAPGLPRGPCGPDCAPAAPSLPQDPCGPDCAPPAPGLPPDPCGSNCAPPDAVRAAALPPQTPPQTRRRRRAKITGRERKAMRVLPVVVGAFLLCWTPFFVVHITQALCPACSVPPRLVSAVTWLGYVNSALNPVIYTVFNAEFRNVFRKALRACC

Cc1cc(NCCN2C3CCCC2CC3)nnc1-c1ccccc1O
Ki [1]: 3 nM

CCS(=O)(=O)N(C)C1c2cc(C#N)ccc2OC(C)(C)[C@H]1O (single isomer, unassigned)
IC50 [2]: 39000 nM | IC50 [3]: 6200 nM

Cc1cc(NCCN2C3CCCC2CC3)nnc1-c1ccccc1
Ki [1]: 50 nM

Cc1noc(NS(=O)(=O)c2ccccc2-c2ccc(-c3ncco3)cc2CNC(=O)CC(C)(C)C)c1C
Ki (Endothelin-1 receptor [4]): 0.01 nM | Dose (Rattus norvegicus): 3 µM/kg | bioavailability (in vivo): 100%

Nc1ccc(S(=O)(=O)Nc2nccs2)cc1 [SULFATHIAZOLE]
IC50 (Endothelin-1 receptor [5]): 69000 nM

CN(C)CCOC1=Cc2ccccc2Sc2ccc(Cl)cc21 [ZOTEPINE]
Ki [6]: 550 nM

O=C1Cc2cc(CCN3CCN(c4nsc5ccccc45)CC3)c(Cl)cc2N1 [ZIPRASIDONE]
Ki [7]: > 5000 nM | Ki [8]: 12 nM

COc1cccc(CN2CC[C@H](NC(=O)c3cc(Cl)c(NC(=O)C4CC4)cc3OC)C2)c1
Ki (D(4) dopamine receptor): 5.62 nM

Cc1cc(NCCN2CCOCC2)nnc1-c1ccccc1
Ki [1]: 550 nM

Cc1cc(-c2ccccc2)nnc1NCCN1CCOCC1 [MINAPRINE]
IC50 (Acetylcholinesterase [9]): 600000 nM | Ki [1]: 17000 nM

CCS(=O)(=O)N(C)C1c2cc(C#N)ccc2OC(C)(C)[C@@H]1O (single isomer, unassigned)
IC50 [2]: 5000 nM

c1ccc(-c2ccc(NCCN3CCCCC3)nn2)cc1
IC50 (Acetylcholinesterase [10]): 13000 nM

NC(=O)CCN(CCC(N)=O)S(=O)(=O)c1cccc(Nc2nc(Nc3cccc(S(=O)(=O)N(CCC(N)=O)CCC(N)=O)c3)nc(Nc3ccc(-c4ccc(Nc5nc(Nc6cccc(S(=O)(=O)N(CCC(N)=O)CCC(N)=O)c6)nc(Nc6cccc(S(=O)(=O)N(CCC(N)=O)CCC(N)=O)c6)n5)cc4S(=O)(=O)O)c(S(=O)(=O)O)c3)n2)c1
IC50 (Homo sapiens): 50 nM

c1ccc(-c2ccc(NCCCCN3CCc4ccccc4C3)nn2)cc1
IC50 (Acetylcholinesterase [10]): 1900 nM

O=C1NCCN1CCN1CCC(c2cn(-c3ccc(F)cc3)c3ccc(Cl)cc23)CC1 [SERTINDOLE]
Ki [7]: > 5000 nM | Ki [8]: 1.8 nM

COc1cc(OC)nc(CC(C(=O)O)C(C)(Oc2ccc(SC)cc2)c2ccccc2)n1 (configuration not stated)
Ki [11]: 4700 nM | Ki (Endothelin-1 receptor [12]): 160 nM

NC(=O)CCN(CCC(N)=O)S(=O)(=O)c1cccc(Nc2nc(Nc3cccc(S(=O)(=O)N(CCC(N)=O)CCC(N)=O)c3)nc(Nc3ccc(/C=C/c4ccc(Nc5nc(Nc6cccc(S(=O)(=O)N(CCC(N)=O)CCC(N)=O)c6)nc(Nc6cccc(S(=O)(=O)N(CCC(N)=O)CCC(N)=O)c6)n5)cc4S(=O)(=O)O)c(S(=O)(=O)O)c3)n2)c1
IC50 (Homo sapiens): 150 nM

CCCCN1CCCC1CNC(=O)c1cc(C#N)c2ccccc2c1OC (configuration not stated) [NAFADOTRIDE]
Ki (D(3) dopamine receptor): 0.11 nM

COc1cc(OC)nc(CC(C(=O)O)C(C)(Oc2ccc(C(C)C)cc2)c2ccccc2)n1 (configuration not stated)
Ki [11]: 3000 nM | Ki (Endothelin-1 receptor [12]): 250 nM

— ChEMBL document CHEMBL1149193, “Selective optimization of side activities: another way for drug discovery” (J Med Chem, 2004)
